The numbers were not newly measured in patent US9459187B2, “Blood collection device containing lysophospholipase inhibitor” (Becton, Dickinson and Company, priority 2011, dated 2016), which cites them from elsewhere.

The target in data set [1] is acetylcholinesterase (AChE) (Homo sapiens, UniProt P22303). As to conditions: read-out: Ki for AChE.
acetylcholinesterase (AChE), sequence (P22303 32-614, species assumed): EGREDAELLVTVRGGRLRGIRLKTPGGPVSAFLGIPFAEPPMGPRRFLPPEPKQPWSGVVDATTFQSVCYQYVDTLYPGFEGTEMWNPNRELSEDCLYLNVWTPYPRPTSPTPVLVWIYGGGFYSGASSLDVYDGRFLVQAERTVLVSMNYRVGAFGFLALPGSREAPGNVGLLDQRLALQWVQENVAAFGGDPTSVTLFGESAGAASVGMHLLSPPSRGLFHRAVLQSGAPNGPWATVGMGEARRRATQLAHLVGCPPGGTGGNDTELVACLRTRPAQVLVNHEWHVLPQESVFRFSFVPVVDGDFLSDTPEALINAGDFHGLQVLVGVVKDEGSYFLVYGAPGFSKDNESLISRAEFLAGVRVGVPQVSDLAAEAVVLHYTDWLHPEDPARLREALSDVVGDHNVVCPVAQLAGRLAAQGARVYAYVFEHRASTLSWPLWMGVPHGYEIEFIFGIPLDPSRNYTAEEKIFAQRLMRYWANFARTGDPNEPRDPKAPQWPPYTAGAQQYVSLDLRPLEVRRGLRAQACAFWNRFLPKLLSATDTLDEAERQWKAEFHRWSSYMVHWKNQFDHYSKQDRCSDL

For the molecule `CCC1=CC2Cc3nc4cc(Cl)ccc4c(N)c3[C@H](C1)C2` [Huprine X, (1S)-7-chloro-15-ethyl-10-azatetracyclo[11.3.1.0^{2,11}.0^{4,9}]heptadeca-2(11),3,5,7,9,14-hexaen-3-amine], the Ki in data set [1] was 0.026 nM. Take “ghrelin: 28-amino acid peptide having the sequence NH2-GSSFLSPEHQRVQQRKESKKPPAKLQPR-COOH (H-GSSFLSPEHQRVQQRKESKKPPAKLQPR-OH; ends and bridges not checked)”: the half-life in circulation result is “about 30 minutes”. Consider GIP(1-42), for which the half-life in circulation result was “about 5 minutes”. As for “glucagon: 29-amino acid peptide involved in carbohydrate metabolism”, the half-life in circulation is 8 to 18 min.

For orientation: Ki means the equilibrium dissociation constant of an inhibitor or competing ligand from its target.
